Literature values, collected in patent US20230201171A1, “COMPOSITIONS AND METHODS FOR PREVENTING POST-ERCP PANCREATITIS” (THE BOARD OF TRUSTEES OF THE LELAND STANFORD JUNIOR …, priority 2020, published 2023).

System: post-ERCP pancreatitis (PEP)
Conditions: rectal indomethacin alone, current standard of care

COc1ccc2c(c1)c(CC(=O)O)c(C)n2C(=O)c1ccc(Cl)cc1 [rectal indomethacin, indomethacin]
effectiveness of PEP prophylaxis: 35-40%
